What was measured:
[1] = system: experimental coronaria insufficiency; test: Antianginal effect (vasopressin-induced experimental coronaria insufficiency, ECG wave T); assay type: in vivo; details: Rattus norvegicus; rats, iv., 2 minutes prior to vasopressin
Protocol: The test was carried out on rats weighing 180 to 220 g. The animals were narcotised with chloralese-urethane (70-700 mg/kg ip.). The ECG was registered with needle electrodes in standard II leading. The experimental coronaria insufficiency was induced with vasopressin (1 NE/kg i.v.). The height of wave T was measured before and after the administration of vasopressin in both the control and treated groups.

[2] = Acute toxicity on mice; details: mouse, in vivo, po, observed 14 days
Protocol: Method: Litchfield, J. T., Wilcoxon, F. W.: Pharmacol. Exp. Ther., 96, 99 (1949)
White mice belonging to the CFLP strain (body weight 18 to 22 g, both male and female) were used, 6 animals for each dose. The test compounds were administered orally in a volume of 20 ml/kg. […] The mice were kept in a plastic cage at room temperature. The animals get tap water and standard mouse fodder ad libitum. The toxicity data were determined with the aid of the method of Litchfield and Wilcoxon.

[3] = system: Pseudomonas aeruginosa; test: Antimicrobial effect, agar diffusion method; assay type: cell-based; details: HNCMB 170006; 500/μg/hole
From the text: (§1) In addition, the compounds according to the invention posses valuable antimicrobial effect, especially against nonfermenting Gram-negative bacteria strains.

[4] = system: Acinetobacter calcoaceticus; test: Antimicrobial effect, agar diffusion method; assay type: cell-based; details: HNCMB 150001; 500/μg/hole
From the text: as §1

[5] = system: Alcaligenea faecalis; test: Antimicrobial effect, agar diffusion method; assay type: cell-based; details: HNCMB 140001; 500/μg/hole
From the text: as §1

[6] = system: Salmonella enteritidus; test: Antimicrobial effect, agar diffusion method; assay type: cell-based; details: HNCMB 10091; 500/μg/hole
From the text: as §1

[7] = system: Shigella sonnei; test: Antimicrobial effect, agar diffusion method; assay type: cell-based; details: HNCMB 20046; 500/μg/hole
From the text: as §1

[8] = system: Pseudomonas stutzeri; test: Antimicrobial effect, agar diffusion method; assay type: cell-based; details: HNCMB 173008; 500/μg/hole
From the text: as §1

[9] = system: Gastric-secretion and ulcus; test: Stomach-secretion and ulcus tests (pylorus ligature); assay type: in vivo, Wistar rats; details: 3 hours before operation
Protocol: Method: Shay, H., Komarov, S. A., Fels. S. S., Meranze, D., Gruenstein, M., Siplet, H.: Gastroenterology 5, 45 (1945); Adami, E., Marazzi-Ubertti, E., Tirba, C.: Arch. Int. Pharmacodyn. 147, 113 (1964)
Starved wistar […] of 150-250 g body weight were used, 4 male and 4 female animals for each dose. On the day of the experiment the pylorus of the animals was ligatured under ether narcosis. The doses of the test compounds were administered per os, 3 hours before the operation. The control groups were treated with the carrier in identical way. 4 hours after the operation the animals were over-narcotized with ether, their stomach was removed, the stomach contents were separated and after centrifugation the volume of the gastric juices was measured, then their free-acid content and total acidity, resp., were determined by titration with 0.1N NaOH solution. The changes of the gastric mucous membrane were investigated macroscopically and characterized by an ulcus index determined with the aid of the punctuation method of Adami and coworkers.

[10] = system: mice; assay type: in vivo; details: p.o., motility inhibiting effect
Protocol: Method: Borsy, J., Csanyi, E., Lazar, I.: Arch. Int. Pharmacodyn. 124, 1-2 (1960)
The tests were performed on mice. Groups consisting of 3 mice each were trated perorally with different doses of the compounds to be tested. One hour after the administration the test animals were placed in a Dews equipment. In this equipment the number of interruptions of infrared beam within 30 minutes was counted.

## NNC(=S)n1nc(N2CCOCC2)nc1N [Example 16, 1-(5-Amino-3-morpholino-1H-1,2,4-triazol-1-yl)carbothiohydrazide]
[1]
  ED50: 0.7 mg/kg
[2]
  LD50 at 336 h: 1000 mg/kg

## CN1CCN(c2nc(N)n(C(=S)N(C)N)n2)CC1 [Example 9]
[3]
  Inhibition (%): 14%
[4]
  Inhibition (%): 20%
[5]
  Inhibition (%): 23%
[6]
  Inhibition (%): 17%
[7]
  Inhibition (%): 19%
[8]
  Inhibition (%): 25%
[2]
  LD50 at 336 h: 1000 mg/kg

## CN/C(=N/CCSCc1nc[nH]c1C)NC#N [Cimetidine, reference compound]
[9]; 50 mg/kg po.
  Inhibition related to the control in %, free acid: 24%
  Inhibition related to the control in %, gastric juice: 22%
  Inhibition related to the control in %, total acidity: 15%
  Inhibition related to the control in %, ulcus index: 18%
[9]; 200 mg/kg po.
  Inhibition related to the control in %, free acid: 91%
  Inhibition related to the control in %, gastric juice: 59%
  Inhibition related to the control in %, total acidity: 71%
  Inhibition related to the control in %, ulcus index: 72%

## CNN(C)C(=S)n1nc(N2CCOCC2)nc1N [Example 20, 1-(5-Amino-3-morpholino-1H-1,2,4-triazol-1-yl)-N,N'-dimethyl-carbothiohydrazide]
[2]
  LD50 at 336 h: 1000 mg/kg
[9]; 50 mg/kg po.
  Inhibition related to the control in %, free acid: 46%
  Inhibition related to the control in %, gastric juice: 36%
  Inhibition related to the control in %, total acidity: 36%
  Inhibition related to the control in %, ulcus index: 39%
[9]; 200 mg/kg po.
  Inhibition related to the control in %, free acid: 91%
  Inhibition related to the control in %, gastric juice: 58%
  Inhibition related to the control in %, total acidity: 78%
  Inhibition related to the control in %, ulcus index: 70%

## CCCC(C)(COC(N)=O)COC(N)=O [Meprobamate, reference compound]
[10]
  Therapeutical index: 4.1

## CSc1nc(N)n(C(=S)NN)n1 [Example 17, 1-(5-Amino-3-methylthio-1H-1,2,4-triazol-1-yl)carbothiohydrazide]
[10]
  Therapeutical index: ~ 5
[1]
  ED50: 0.84 mg/kg
[2]
  LD50 at 336 h: 350 mg/kg

## CSc1nc(N)n(C(=S)N(C)N)n1 [Example 4, 1-(5-Amino-3-methylthio-1H-1,2,4-triazol-1-yl)-N-methyl-carbothiohydrazide]
[2]
  LD50 at 336 h: 300 mg/kg
[9]; 60 mg/kg po.
  Inhibition related to the control in %, free acid: 60%
  Inhibition related to the control in %, gastric juice: 41%
  Inhibition related to the control in %, total acidity: 50%
  Inhibition related to the control in %, ulcus index: 67%

## CN(N)C(=S)n1nc(N2CCOCC2)nc1N [Example 1, 1-(5-Amino-3-morpholino-1H-1,2,4-triazol-1-yl)-N-methyl-carbothiohydrazide]
[10]
  Therapeutical index: > 10
[2]
  LD50 at 336 h: > 1000 mg/kg

## CC(Cc1ccccc1)NCCC(c1ccccc1)c1ccccc1 (centres unmarked) [Prenylamine, reference compound]
[1]
  ED50: 6.5 mg/kg
